From publication PMC3399817 (PLoS ONE, 2012)

What was measured:
Experiment in all cases: KINOMEscan
Type in all cases: binding
CSNK1D = molecular target: T1, CSNK1D (Homo sapiens, UniProt P48730); conditions: 1 uM
T1 construct: purchased Ambit KINOMEscan (DiscoverX)
Method in brief: (§1)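 Substrate-binding inhibition measured with compound present at 1 μM, single concentration, to pick out affected kinases.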

PAK4 = molecular target: T2, PAK4 (Homo sapiens, UniProt O96013); conditions: PAK4, 1 uM
T2 construct: purchased Ambit KINOMEscan (DiscoverX)
T2 sequence (O96013 whole entry): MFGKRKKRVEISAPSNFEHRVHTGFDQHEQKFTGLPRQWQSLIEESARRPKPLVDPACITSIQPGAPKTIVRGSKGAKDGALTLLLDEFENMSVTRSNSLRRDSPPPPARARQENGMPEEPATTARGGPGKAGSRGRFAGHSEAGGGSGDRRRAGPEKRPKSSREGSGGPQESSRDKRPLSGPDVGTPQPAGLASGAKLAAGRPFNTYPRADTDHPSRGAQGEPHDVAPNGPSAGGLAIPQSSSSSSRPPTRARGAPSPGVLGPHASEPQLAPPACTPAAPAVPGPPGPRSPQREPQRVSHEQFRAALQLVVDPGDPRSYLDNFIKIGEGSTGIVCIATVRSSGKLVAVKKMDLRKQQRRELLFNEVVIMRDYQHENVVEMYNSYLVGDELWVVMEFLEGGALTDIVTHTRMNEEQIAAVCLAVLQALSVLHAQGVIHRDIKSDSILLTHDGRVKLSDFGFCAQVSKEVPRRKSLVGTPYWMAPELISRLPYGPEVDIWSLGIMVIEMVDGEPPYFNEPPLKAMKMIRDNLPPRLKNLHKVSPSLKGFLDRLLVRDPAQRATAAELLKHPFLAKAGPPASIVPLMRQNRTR
Method in brief: as §1

[1] = molecular target: T3, RPS6KA5(Kin.Dom.1-N-terminal) (Homo sapiens, UniProt O75582); conditions: 1 uM
T3 construct: RPS6KA5(Kin.Dom.1-N-terminal); purchased Ambit KINOMEscan (DiscoverX)
Method in brief: as §1

EPHA6 = molecular target: T4, EPHA6 (Homo sapiens, UniProt Q9UF33); conditions: EPHA6, 1 uM
T4 construct: purchased Ambit KINOMEscan (DiscoverX)
T4 sequence (Q9UF33 23-1036): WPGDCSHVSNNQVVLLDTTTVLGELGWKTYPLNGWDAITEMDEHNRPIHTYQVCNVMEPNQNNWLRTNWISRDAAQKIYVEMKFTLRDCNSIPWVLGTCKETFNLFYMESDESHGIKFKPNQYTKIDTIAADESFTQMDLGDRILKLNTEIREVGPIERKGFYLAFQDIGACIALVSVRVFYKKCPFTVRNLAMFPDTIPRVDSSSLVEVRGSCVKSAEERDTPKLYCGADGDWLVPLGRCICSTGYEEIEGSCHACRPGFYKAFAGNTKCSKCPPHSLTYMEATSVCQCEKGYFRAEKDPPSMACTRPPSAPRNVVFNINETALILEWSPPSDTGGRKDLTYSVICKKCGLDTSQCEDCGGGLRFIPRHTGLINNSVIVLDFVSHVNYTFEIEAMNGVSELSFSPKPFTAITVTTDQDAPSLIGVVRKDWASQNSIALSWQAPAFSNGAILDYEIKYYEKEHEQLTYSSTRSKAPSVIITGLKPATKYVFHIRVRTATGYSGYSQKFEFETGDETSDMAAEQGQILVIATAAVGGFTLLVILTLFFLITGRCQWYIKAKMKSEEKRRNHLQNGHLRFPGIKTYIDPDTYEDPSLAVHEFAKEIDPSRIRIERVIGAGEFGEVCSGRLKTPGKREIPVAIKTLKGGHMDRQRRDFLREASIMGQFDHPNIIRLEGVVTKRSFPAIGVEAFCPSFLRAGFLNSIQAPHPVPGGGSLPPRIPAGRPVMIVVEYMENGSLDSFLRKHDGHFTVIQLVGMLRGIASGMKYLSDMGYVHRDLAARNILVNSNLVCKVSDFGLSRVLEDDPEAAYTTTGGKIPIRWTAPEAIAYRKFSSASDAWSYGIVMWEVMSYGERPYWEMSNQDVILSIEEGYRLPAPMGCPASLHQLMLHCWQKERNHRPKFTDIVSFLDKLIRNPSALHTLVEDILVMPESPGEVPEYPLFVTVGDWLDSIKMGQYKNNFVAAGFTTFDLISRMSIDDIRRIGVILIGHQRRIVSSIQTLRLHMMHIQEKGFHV
Method in brief: as §1

BMPR1A = molecular target: T5, BMPR1A (Homo sapiens, UniProt P36894); conditions: 1 uM
T5 construct: purchased Ambit KINOMEscan (DiscoverX)
Method in brief: as §1

RAF1 = molecular target: T6, RAF1 (Homo sapiens, UniProt P04049); conditions: RAF1, 1 uM
T6 construct: purchased Ambit KINOMEscan (DiscoverX)
Method in brief: as §1

PAK2 = molecular target: T7, PAK2 (Homo sapiens, UniProt Q13177); conditions: PAK2, 1 uM
T7 construct: purchased Ambit KINOMEscan (DiscoverX)
Method in brief: as §1

TIE1 = molecular target: T8, TIE1 (Homo sapiens, UniProt P35590); conditions: TIE1, 1 uM
T8 construct: purchased Ambit KINOMEscan (DiscoverX)
Method in brief: as §1

[2] = molecular target: T9, RPS6KA5(Kin.Dom.2-C-terminal) (Homo sapiens, UniProt O75582); conditions: 1 uM
T9 construct: RPS6KA5(Kin.Dom.2-C-terminal); purchased Ambit KINOMEscan (DiscoverX)
Method in brief: as §1

ANKK1 = molecular target: T10, ANKK1 (Homo sapiens, UniProt Q8NFD2); conditions: ANKK1, 1 uM
T10 construct: purchased Ambit KINOMEscan (DiscoverX)
Method in brief: as §1

PLK2 = molecular target: T11, PLK2 (Homo sapiens, UniProt Q9NYY3); conditions: PLK2, 1 uM
T11 construct: purchased Ambit KINOMEscan (DiscoverX)
Method in brief: as §1

DDR1 = molecular target: T12, DDR1 (Homo sapiens, UniProt Q08345); conditions: DDR1, 1 uM
T12 construct: purchased Ambit KINOMEscan (DiscoverX)
T12 sequence (Q08345 19-913): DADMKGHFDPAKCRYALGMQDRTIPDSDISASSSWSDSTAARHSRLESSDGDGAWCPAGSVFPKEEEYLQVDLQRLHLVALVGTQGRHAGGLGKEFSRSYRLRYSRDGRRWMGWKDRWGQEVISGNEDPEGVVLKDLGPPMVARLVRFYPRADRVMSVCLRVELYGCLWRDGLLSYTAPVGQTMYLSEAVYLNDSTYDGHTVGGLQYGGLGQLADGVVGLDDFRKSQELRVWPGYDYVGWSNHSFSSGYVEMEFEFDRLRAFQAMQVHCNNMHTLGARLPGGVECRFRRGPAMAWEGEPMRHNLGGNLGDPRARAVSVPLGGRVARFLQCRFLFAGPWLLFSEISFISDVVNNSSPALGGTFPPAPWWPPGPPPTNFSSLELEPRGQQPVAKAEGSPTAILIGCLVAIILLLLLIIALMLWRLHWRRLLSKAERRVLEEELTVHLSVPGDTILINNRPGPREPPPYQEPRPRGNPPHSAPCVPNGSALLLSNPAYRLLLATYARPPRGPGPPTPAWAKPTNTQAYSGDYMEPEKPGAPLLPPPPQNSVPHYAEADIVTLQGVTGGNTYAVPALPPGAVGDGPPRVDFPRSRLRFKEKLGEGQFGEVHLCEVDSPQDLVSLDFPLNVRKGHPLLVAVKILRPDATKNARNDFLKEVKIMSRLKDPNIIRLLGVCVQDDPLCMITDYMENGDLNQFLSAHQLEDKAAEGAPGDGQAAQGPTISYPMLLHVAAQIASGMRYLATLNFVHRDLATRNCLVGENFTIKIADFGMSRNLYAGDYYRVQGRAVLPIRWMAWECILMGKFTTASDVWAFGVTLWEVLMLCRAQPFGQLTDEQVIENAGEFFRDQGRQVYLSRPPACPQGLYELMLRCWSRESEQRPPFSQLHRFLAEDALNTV
Method in brief: as §1

EGFR(E746-A750del) = molecular target: T13, EGFR(E746-A750del) (Homo sapiens, UniProt P00533, DEL746-750); conditions: 1 uM
T13 construct: purchased Ambit KINOMEscan (DiscoverX)
T13 sequence (P00533 with tags, fused parts or gaps DEL746-750 limits assumed): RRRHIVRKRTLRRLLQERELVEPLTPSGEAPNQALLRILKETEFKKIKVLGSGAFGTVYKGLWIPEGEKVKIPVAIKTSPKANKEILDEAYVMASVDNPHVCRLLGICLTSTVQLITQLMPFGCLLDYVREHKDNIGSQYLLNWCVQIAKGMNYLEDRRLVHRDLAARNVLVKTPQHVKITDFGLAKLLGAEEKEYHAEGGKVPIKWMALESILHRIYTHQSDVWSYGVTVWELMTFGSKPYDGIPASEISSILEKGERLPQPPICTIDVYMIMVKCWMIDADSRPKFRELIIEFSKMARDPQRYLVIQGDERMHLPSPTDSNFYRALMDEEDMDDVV
Method in brief: as §1

CAMK4 = molecular target: T14, CAMK4 (Homo sapiens, UniProt Q16566); conditions: CAMK4, 1 uM
T14 construct: purchased Ambit KINOMEscan (DiscoverX)
Method in brief: as §1

YANK2 = molecular target: T15, YANK2 (Homo sapiens, UniProt Q9NY57); conditions: YANK2, 1 uM
T15 construct: purchased Ambit KINOMEscan (DiscoverX)
Method in brief: as §1

EGFR = molecular target: T16, EGFR (Homo sapiens, UniProt P00533); conditions: 1 uM
T16 construct: purchased Ambit KINOMEscan (DiscoverX)
Method in brief: as §1

JNK1 = molecular target: T17, JNK1 (Homo sapiens, UniProt P45983); conditions: JNK1, 1 uM
T17 construct: purchased Ambit KINOMEscan (DiscoverX)
Method in brief: as §1

CDK7 = molecular target: T18, CDK7 (Homo sapiens, UniProt P50613); conditions: CDK7, 1 uM
T18 construct: purchased Ambit KINOMEscan (DiscoverX)
Method in brief: as §1

MEK1 = molecular target: T19, MEK1 (Homo sapiens, UniProt Q02750); conditions: MEK1, 1 uM
T19 construct: purchased Ambit KINOMEscan (DiscoverX)
Method in brief: as §1

RIOK3 = molecular target: T20, RIOK3 (Homo sapiens, UniProt O14730); conditions: RIOK3, 1 uM
T20 construct: purchased Ambit KINOMEscan (DiscoverX)
T20 sequence (O14730 whole entry): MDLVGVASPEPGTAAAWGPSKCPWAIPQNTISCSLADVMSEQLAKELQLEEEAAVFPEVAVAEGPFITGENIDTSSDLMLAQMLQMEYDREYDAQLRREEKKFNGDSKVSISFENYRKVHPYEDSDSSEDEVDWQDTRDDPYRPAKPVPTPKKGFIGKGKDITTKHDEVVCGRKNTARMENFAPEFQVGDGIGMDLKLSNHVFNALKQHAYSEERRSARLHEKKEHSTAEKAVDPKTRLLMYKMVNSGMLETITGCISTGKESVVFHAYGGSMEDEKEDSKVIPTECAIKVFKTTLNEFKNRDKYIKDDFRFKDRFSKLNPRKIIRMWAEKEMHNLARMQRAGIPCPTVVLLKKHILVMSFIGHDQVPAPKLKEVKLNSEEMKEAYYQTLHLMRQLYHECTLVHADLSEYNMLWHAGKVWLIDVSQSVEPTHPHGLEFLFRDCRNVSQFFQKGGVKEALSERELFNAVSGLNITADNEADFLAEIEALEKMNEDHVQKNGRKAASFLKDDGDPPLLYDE
Method in brief: as §1

GSK3A = molecular target: T21, GSK3A (Homo sapiens, UniProt P49840); conditions: for % binding compared to no inhibitor control: GSK3A, 1 uM
T21 construct: purchased Ambit KINOMEscan (DiscoverX)
T21 sequence (P49840 whole entry): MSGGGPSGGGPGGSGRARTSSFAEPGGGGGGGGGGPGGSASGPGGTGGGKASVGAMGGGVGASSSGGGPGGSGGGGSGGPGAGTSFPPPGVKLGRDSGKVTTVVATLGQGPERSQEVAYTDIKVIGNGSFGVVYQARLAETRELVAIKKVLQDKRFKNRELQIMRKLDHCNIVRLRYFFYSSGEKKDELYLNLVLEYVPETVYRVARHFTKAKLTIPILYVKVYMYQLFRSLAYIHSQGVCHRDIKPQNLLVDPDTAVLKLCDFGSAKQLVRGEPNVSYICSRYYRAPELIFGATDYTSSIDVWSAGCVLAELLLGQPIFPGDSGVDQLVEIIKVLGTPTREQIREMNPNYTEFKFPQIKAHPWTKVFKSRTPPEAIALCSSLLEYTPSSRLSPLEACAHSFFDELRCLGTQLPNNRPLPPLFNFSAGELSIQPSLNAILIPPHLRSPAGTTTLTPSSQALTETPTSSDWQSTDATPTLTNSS
Method in brief: as §1

PKN1 = molecular target: T22, PKN1 (Homo sapiens, UniProt Q16512); conditions: PKN1, 1 uM
T22 construct: purchased Ambit KINOMEscan (DiscoverX)
Method in brief: as §1

TNNI3K = molecular target: T23, TNNI3K (Homo sapiens, UniProt Q59H18); conditions: 1 uM
T23 construct: purchased Ambit KINOMEscan (DiscoverX)
Method in brief: as §1

PIK3CA(E542K) = molecular target: T24, PIK3CA(E542K) (Homo sapiens, UniProt P42336, E542K); conditions: 1 uM
T24 construct: purchased Ambit KINOMEscan (DiscoverX)
Method in brief: as §1

CSNK1A1 = molecular target: T25, CSNK1A1 (Homo sapiens, UniProt P48729); conditions: CSNK1A1, 1 uM
T25 construct: purchased Ambit KINOMEscan (DiscoverX)
Method in brief: as §1

KIT(L576P) = molecular target: T26, KIT(L576P) (Homo sapiens, UniProt P10721, L576P); conditions: 1 uM
T26 construct: purchased Ambit KINOMEscan (DiscoverX)
Method in brief: as §1

AKT3 = molecular target: T27, AKT3 (Homo sapiens, UniProt Q9Y243); conditions: AKT3, 1 uM
T27 construct: purchased Ambit KINOMEscan (DiscoverX)
Method in brief: as §1

ULK3 = molecular target: T28, ULK3 (Homo sapiens, UniProt Q6PHR2); conditions: ULK3, 1 uM
T28 construct: purchased Ambit KINOMEscan (DiscoverX)
Method in brief: as §1

ERBB2 = molecular target: T29, ERBB2 (Homo sapiens, UniProt P04626); conditions: ERBB2, 1 uM
T29 construct: purchased Ambit KINOMEscan (DiscoverX)
Method in brief: as §1

ERK3 = molecular target: T30, ERK3 (Homo sapiens, UniProt Q16659); conditions: ERK3, 1 uM
T30 construct: purchased Ambit KINOMEscan (DiscoverX)
Method in brief: as §1

FES = molecular target: T31, FES (Homo sapiens, UniProt P07332); conditions: 1 uM
T31 construct: purchased Ambit KINOMEscan (DiscoverX)
T31 sequence (P07332 whole entry): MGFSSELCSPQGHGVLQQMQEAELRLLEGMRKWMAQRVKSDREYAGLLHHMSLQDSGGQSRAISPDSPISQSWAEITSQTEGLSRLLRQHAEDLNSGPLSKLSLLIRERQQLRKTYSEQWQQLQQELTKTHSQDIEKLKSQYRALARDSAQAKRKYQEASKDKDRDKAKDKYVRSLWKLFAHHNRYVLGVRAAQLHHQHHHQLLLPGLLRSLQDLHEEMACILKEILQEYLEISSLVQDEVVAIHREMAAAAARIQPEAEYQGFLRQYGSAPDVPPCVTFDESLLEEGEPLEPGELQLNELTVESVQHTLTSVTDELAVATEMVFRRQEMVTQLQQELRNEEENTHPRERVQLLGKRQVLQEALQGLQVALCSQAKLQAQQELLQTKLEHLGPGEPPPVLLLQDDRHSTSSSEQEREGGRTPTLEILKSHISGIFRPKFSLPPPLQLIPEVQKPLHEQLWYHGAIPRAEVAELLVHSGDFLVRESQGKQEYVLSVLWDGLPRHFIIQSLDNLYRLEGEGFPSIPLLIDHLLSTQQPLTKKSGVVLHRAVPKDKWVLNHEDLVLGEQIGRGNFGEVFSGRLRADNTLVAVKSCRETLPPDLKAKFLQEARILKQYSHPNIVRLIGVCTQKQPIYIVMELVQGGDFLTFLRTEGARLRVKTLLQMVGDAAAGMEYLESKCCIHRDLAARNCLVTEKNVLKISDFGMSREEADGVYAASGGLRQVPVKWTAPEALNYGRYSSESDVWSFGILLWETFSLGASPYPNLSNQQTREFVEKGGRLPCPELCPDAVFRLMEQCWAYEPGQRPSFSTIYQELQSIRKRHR
Method in brief: as §1

ERK2 = molecular target: T32, ERK2 (Homo sapiens, UniProt P28482); conditions: ERK2, 1 uM
T32 construct: purchased Ambit KINOMEscan (DiscoverX)
T32 sequence (P28482 whole entry): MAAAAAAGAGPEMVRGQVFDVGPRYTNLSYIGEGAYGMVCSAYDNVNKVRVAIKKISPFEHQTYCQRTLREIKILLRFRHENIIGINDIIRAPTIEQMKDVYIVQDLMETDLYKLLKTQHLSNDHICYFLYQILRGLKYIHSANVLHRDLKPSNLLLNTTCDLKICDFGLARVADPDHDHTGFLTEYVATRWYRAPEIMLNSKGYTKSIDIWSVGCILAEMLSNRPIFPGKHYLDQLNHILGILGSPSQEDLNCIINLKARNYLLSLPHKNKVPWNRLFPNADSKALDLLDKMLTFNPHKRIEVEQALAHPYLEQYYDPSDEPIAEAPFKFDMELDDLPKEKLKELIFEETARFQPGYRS
Method in brief: as §1

MKNK2 = molecular target: T33, MKNK2 (Homo sapiens, UniProt Q9HBH9); conditions: MKNK2, 1 uM
T33 construct: purchased Ambit KINOMEscan (DiscoverX)
Method in brief: as §1

CSNK1G1 = molecular target: T34, CSNK1G1 (Homo sapiens, UniProt Q9HCP0); conditions: CSNK1G1, 1 uM
T34 construct: purchased Ambit KINOMEscan (DiscoverX)
Method in brief: as §1

PIP5K1A = molecular target: T35, PIP5K1A (Homo sapiens, UniProt Q99755); conditions: 1 uM
T35 construct: purchased Ambit KINOMEscan (DiscoverX)
Method in brief: as §1

PIK3CD = molecular target: T36, PIK3CD (Homo sapiens, UniProt O00329); conditions: 1 uM
T36 construct: purchased Ambit KINOMEscan (DiscoverX)
Method in brief: as §1

PCTK1 = molecular target: T37, PCTK1 (Homo sapiens, UniProt Q00536); conditions: PCTK1, 1 uM
T37 construct: purchased Ambit KINOMEscan (DiscoverX)
Method in brief: as §1

HUNK = molecular target: T38, HUNK (Homo sapiens, UniProt P57058); conditions: 1 uM
T38 construct: purchased Ambit KINOMEscan (DiscoverX)
Method in brief: as §1

SMILES	% binding compared to no inhibitor control (CSNK1D) [%]	% binding compared to no inhibitor control (PAK4) [%]	% binding compared to no inhibitor control [1] [%]	% binding compared to no inhibitor control (EPHA6) [%]	% binding compared to no inhibitor control (BMPR1A) [%]	% binding compared to no inhibitor control (RAF1) [%]	% binding compared to no inhibitor control (PAK2) [%]	% binding compared to no inhibitor control (TIE1) [%]	% binding compared to no inhibitor control [2] [%]	% binding compared to no inhibitor control (ANKK1) [%]	% binding compared to no inhibitor control (PLK2) [%]	% binding compared to no inhibitor control (DDR1) [%]	% binding compared to no inhibitor control (EGFR(E746-A750del)) [%]	% binding compared to no inhibitor control (CAMK4) [%]	% binding compared to no inhibitor control (YANK2) [%]	% binding compared to no inhibitor control (EGFR) [%]	% binding compared to no inhibitor control (JNK1) [%]	% binding compared to no inhibitor control (CDK7) [%]	% binding compared to no inhibitor control (MEK1) [%]	% binding compared to no inhibitor control (RIOK3) [%]	also measured
COc1ccc(-c2cc3nccn3c(Nc3ncccc3C(N)=O)n2)cc1OC.Cl.Cl [BAY61-3606, 2-[7-(3,4-dimethoxyphenyl)-imidazo [1,2-c]pyrimidin-5-ylamino] nicotinamide dihydrochloride, reference compound]	74	85	90	97	79	81	80	100	89	21	50	99	49	100	86	87	18	33	100	98	% binding compared to no inhibitor control (GSK3A): 17%; % inhibition ATP binding (GSK3A; GSK3α, KINOMEscan, 1 μM): 83%; % binding compared to no inhibitor control (PKN1): 47%; % binding compared to no inhibitor control (TNNI3K): 100%; % binding compared to no inhibitor control (PIK3CA(E542K)): 99%; % binding compared to no inhibitor control (CSNK1A1): 100%; % binding compared to no inhibitor control (KIT(L576P)): 0.4%; % binding compared to no inhibitor control (AKT3): 90%; % binding compared to no inhibitor control (ULK3): 51%; % binding compared to no inhibitor control (ERBB2): 93%; % binding compared to no inhibitor control (ERK3): 73%; % binding compared to no inhibitor control (FES): 88%; % binding compared to no inhibitor control (ERK2): 68%; % binding compared to no inhibitor control (MKNK2): 1.7%; % binding compared to no inhibitor control (CSNK1G1): 84%; % binding compared to no inhibitor control (PIP5K1A): 64%; % binding compared to no inhibitor control (PIK3CD): 81%; % binding compared to no inhibitor control (PCTK1): 86%; % binding compared to no inhibitor control (HUNK): 67%
COc1ccccc1Nc1nc(-c2ccc(OC)c(OC)c2)cc2nccn12 [BAY derivative 6]	100	90	89	100	100	100	76	94	97	100	100	100	75	100	100	100	95	100	100	80	% binding compared to no inhibitor control (GSK3A): 100%; % binding compared to no inhibitor control (PKN1): 100%; % binding compared to no inhibitor control (TNNI3K): 100%; % binding compared to no inhibitor control (PIK3CA(E542K)): 100%; % binding compared to no inhibitor control (CSNK1A1): 100%; % binding compared to no inhibitor control (KIT(L576P)): 38%; % binding compared to no inhibitor control (AKT3): 100%; % binding compared to no inhibitor control (ULK3): 100%; % binding compared to no inhibitor control (ERBB2): 71%; % binding compared to no inhibitor control (ERK3): 88%; % binding compared to no inhibitor control (FES): 100%; % binding compared to no inhibitor control (ERK2): 70%; % binding compared to no inhibitor control (MKNK2): 100%; % binding compared to no inhibitor control (CSNK1G1): 94%; % binding compared to no inhibitor control (PIP5K1A): 86%; % binding compared to no inhibitor control (PIK3CD): 100%; % binding compared to no inhibitor control (PCTK1): 100%; % binding compared to no inhibitor control (HUNK): 75%
